The values below come from ChEMBL document CHEMBL5291721, “A preclinical secondary pharmacology resource illuminates target-adverse drug reaction associations of marketed drugs” (Nat Commun, 2023).

Some targets named below: Adenosine receptor A2a (Homo sapiens, UniProt P29274); Vasopressin V1a receptor (Homo sapiens, UniProt P37288); Motilin receptor (Homo sapiens, UniProt O43193).
Assay [1] addresses T1, Alpha-2A adrenergic receptor (Homo sapiens, UniProt P08913).
T1 sequence (P08913 whole entry): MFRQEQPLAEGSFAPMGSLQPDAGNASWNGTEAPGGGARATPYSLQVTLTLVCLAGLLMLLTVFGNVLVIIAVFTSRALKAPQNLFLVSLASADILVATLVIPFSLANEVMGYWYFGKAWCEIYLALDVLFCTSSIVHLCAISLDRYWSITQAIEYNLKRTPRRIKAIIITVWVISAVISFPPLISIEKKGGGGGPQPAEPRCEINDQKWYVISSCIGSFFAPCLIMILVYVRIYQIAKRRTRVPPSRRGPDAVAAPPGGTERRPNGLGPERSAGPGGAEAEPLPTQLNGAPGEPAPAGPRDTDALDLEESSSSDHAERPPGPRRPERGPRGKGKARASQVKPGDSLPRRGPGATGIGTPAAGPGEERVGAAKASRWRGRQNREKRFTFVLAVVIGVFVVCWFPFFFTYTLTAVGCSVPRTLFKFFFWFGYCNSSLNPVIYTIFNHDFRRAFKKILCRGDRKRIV
Format: functional, cell-based.

For assay [2], the target named is T2, Type-1 angiotensin II receptor (Homo sapiens, UniProt P30556).
T2 sequence (P30556 whole entry): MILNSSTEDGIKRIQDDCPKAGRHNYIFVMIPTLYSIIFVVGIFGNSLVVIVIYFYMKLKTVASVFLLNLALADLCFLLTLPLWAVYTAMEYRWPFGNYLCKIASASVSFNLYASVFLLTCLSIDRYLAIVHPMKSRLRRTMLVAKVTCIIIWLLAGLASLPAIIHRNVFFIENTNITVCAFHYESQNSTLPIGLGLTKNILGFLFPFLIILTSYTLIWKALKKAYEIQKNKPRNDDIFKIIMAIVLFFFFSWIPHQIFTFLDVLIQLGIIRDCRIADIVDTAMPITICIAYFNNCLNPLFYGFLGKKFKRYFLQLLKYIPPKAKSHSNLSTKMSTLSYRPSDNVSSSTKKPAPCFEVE

Assay [3] concerns the target T3, Gastrin/cholecystokinin type B receptor (Homo sapiens, UniProt P32239).
T3 sequence (P32239 whole entry): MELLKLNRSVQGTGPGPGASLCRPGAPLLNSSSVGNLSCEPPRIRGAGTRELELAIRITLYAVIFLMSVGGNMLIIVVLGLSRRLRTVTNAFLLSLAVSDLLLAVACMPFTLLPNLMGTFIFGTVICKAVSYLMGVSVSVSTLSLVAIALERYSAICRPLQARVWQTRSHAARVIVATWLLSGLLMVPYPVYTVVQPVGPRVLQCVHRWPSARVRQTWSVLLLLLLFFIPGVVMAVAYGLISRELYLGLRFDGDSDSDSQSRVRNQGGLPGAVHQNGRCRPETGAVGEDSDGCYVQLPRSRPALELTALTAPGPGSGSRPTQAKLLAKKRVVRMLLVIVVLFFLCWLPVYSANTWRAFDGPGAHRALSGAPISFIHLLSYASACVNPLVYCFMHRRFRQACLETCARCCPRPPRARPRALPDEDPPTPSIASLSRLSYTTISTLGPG

In assay [4] the target is Gamma-aminobutyric acid receptor subunit alpha-1 (Rattus norvegicus, UniProt P62813). Format: functional.
Gamma-aminobutyric acid receptor subunit alpha-1, sequence (P62813 whole entry): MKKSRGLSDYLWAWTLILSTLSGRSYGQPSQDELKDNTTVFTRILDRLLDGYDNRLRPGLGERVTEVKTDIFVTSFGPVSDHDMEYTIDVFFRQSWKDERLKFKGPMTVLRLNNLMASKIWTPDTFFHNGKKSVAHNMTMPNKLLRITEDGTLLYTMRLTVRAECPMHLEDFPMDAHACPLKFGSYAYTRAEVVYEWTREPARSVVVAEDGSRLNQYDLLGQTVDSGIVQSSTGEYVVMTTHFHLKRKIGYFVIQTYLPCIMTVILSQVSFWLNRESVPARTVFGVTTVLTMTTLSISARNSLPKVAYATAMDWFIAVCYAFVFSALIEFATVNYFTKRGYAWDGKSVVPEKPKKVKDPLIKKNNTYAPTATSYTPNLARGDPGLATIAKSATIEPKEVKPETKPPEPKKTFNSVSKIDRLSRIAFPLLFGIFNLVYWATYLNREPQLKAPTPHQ
A further assay has as its target Histamine H2 receptor (Homo sapiens, UniProt P25021). In kind it is functional, cell-based.
Assay [5] concerns the target T4, Progesterone receptor (Homo sapiens, UniProt P06401).
T4 sequence (P06401 whole entry): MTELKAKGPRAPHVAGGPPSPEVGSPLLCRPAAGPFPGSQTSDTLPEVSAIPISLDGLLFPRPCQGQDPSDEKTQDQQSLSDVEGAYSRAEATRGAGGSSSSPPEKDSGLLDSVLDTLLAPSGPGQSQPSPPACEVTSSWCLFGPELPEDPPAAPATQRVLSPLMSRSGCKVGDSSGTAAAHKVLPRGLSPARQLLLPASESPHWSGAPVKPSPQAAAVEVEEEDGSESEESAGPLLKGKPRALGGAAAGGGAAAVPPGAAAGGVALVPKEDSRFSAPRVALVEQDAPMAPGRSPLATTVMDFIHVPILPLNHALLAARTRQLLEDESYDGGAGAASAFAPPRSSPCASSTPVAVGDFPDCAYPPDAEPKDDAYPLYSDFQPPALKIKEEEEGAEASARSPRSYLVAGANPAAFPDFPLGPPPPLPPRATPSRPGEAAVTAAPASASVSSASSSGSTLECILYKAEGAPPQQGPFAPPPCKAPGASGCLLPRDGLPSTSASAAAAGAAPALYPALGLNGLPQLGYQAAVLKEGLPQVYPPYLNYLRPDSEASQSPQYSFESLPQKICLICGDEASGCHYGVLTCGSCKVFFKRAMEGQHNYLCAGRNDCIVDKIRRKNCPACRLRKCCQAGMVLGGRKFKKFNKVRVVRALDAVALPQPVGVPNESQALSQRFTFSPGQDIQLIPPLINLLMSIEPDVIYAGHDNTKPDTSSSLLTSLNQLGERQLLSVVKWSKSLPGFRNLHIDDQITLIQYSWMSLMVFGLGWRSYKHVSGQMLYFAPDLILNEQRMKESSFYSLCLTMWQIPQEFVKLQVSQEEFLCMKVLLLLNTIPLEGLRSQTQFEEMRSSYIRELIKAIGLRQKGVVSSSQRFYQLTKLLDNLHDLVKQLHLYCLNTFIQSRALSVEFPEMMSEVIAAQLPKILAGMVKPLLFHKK
Format: functional.

In assay [6] the target is T4, Progesterone receptor. Format: functional. The source holds these as a separate data set.
Note: assay procedure not described here.

Vasopressin V1a receptor, sequence (P37288 whole entry): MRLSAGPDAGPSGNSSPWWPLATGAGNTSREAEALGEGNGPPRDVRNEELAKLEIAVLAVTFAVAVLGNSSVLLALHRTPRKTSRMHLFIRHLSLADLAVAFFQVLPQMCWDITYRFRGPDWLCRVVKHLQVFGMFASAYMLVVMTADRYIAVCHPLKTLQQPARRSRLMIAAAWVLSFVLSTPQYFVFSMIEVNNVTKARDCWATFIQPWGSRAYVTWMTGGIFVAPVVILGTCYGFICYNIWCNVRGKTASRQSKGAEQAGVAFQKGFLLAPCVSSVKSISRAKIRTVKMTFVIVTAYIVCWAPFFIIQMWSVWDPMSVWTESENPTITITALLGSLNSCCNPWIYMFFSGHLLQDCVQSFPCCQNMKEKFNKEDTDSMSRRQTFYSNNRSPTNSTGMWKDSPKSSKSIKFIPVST
Adenosine receptor A2a, sequence (P29274 whole entry): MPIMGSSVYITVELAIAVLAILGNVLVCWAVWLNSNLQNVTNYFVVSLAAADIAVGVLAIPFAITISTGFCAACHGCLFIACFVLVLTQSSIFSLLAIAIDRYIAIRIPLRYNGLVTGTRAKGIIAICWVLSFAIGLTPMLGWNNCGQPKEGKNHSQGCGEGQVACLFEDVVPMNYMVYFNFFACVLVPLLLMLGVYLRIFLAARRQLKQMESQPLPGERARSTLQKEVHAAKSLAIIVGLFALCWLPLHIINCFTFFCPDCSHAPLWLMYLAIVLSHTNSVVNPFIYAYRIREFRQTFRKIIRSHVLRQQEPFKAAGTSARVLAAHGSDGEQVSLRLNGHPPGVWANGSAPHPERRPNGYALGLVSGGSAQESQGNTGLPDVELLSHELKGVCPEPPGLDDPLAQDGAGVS
Motilin receptor, sequence (O43193 whole entry): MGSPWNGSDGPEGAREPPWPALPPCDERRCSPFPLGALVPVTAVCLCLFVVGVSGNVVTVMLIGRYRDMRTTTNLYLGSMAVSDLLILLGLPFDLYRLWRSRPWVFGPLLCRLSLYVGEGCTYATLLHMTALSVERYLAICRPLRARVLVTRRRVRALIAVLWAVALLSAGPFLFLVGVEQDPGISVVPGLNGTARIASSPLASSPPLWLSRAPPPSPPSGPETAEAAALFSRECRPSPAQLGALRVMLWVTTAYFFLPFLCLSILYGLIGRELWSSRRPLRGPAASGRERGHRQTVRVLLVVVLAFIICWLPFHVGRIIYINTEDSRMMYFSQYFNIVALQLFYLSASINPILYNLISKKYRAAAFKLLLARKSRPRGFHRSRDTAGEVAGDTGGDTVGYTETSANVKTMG
Histamine H2 receptor, sequence (P25021 whole entry): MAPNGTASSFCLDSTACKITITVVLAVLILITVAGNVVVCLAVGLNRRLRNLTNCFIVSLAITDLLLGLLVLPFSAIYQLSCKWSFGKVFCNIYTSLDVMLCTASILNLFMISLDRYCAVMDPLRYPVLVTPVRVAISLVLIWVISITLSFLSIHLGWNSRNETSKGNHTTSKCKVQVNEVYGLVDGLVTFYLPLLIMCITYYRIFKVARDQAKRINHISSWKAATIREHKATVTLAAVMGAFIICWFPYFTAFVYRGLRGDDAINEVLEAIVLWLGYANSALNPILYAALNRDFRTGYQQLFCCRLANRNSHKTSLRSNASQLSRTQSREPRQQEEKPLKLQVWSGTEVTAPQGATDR

On to `Oc1cc(O)c(Cl)cn1`, for which the AC50 (at Adenosine receptor A2a; in [1]; in [2]; at Vasopressin V1a receptor; in [3]; in assay [4]) was greater than 30 µM throughout. The AC50 at Histamine H2 receptor and on Motilin receptor was greater than 30 µM each time.

In the case of `Cc1cc(=O)n(-c2ccccc2)n1C` [ANTIPYRINE], the AC50 (in general, the concentration giving half of the maximal activity seen) at Adenosine receptor A2a was greater than 30 µM; in assay [1], greater than 10 µM; in [2], greater than 30 µM; in assay [3], greater than 30 µM; in [4], greater than 10 µM; on Histamine H2 receptor, greater than 10 µM. Also, the AC50 at Motilin receptor was greater than 10 µM.

Take `COc1cc(N)c(Cl)cc1C(=O)NC1CCN(CCCOc2ccc(F)cc2)CC1OC` (configuration not stated) [CISAPRIDE]: the AC50 is greater than 30 µM at Adenosine receptor A2a; greater than 30 µM in [2]; greater than 30 µM on Vasopressin V1a receptor; greater than 30 µM in [3]; greater than 10 µM in assay [4]; greater than 10 µM at Histamine H2 receptor. At Motilin receptor, the AC50 was 1.8 µM.

Turning to `CCOC(=O)C(C)(C)Oc1ccc(Cl)cc1` [CLOFIBRATE], the AC50 is greater than 30 µM on Adenosine receptor A2a; greater than 10 µM in [1]; greater than 30 µM in assay [2]; greater than 30 µM on Vasopressin V1a receptor; greater than 30 µM in assay [3]; greater than 10 µM in [4]. Besides, the half-maximal activity concentration (AC50) at Histamine H2 receptor and at Motilin receptor was greater than 10 µM in each case.

Take `CCCCOc1ccc(C(=O)CCN2CCCCC2)cc1` [DYCLONINE]: the AC50 is greater than 30 µM on Adenosine receptor A2a; greater than 10 µM in [1]; greater than 30 µM in assay [2]; greater than 10 µM at Vasopressin V1a receptor; greater than 30 µM in [3]; greater than 10 µM in assay [4]. Besides, the AC50 on Histamine H2 receptor and at Motilin receptor was greater than 10 µM in each case.

On to `CC(C)NC[C@H](O)COc1ccc(CC(N)=O)cc1` [ESATENOLOL], for which the concentration at half-maximal activity (AC50) was greater than 30 µM on Adenosine receptor A2a; greater than 10 µM in assay [1]; greater than 30 µM in assay [2]; greater than 10 µM on Vasopressin V1a receptor; greater than 30 µM in assay [3]; greater than 10 µM on Histamine H2 receptor. Also, on Motilin receptor, the AC50 was greater than 10 µM.

For the molecule `O=C1Nc2ccc(Cl)cc2C(c2ccccc2Cl)=NC1O` (configuration not stated) [LORAZEPAM], the AC50 on Adenosine receptor A2a was greater than 30 µM; in assay [1] it was greater than 10 µM; in assay [2], greater than 30 µM; at Vasopressin V1a receptor, greater than 10 µM; in assay [3], greater than 30 µM; in [4], 0.0074 µM. Further, the half-maximal activity concentration (AC50) on Histamine H2 receptor and at Motilin receptor was greater than 10 µM in each case.

For the molecule `Fc1ccc([C@@H]2CCNC[C@H]2COc2ccc3c(c2)OCO3)cc1` [PAROXETINE], the AC50 at Adenosine receptor A2a is greater than 30 µM; in assay [2], greater than 30 µM; on Vasopressin V1a receptor, greater than 10 µM; in [3] it was greater than 30 µM; in assay [4], greater than 10 µM; on Motilin receptor, greater than 10 µM.

With `O=c1c(O)c(-c2ccc(O)c(O)c2)oc2cc(O)cc(O)c12` [QUERCETIN], the half-maximal activity concentration (AC50) is greater than 30 µM on Adenosine receptor A2a; greater than 10 µM in [1]; greater than 30 µM in [2]; greater than 30 µM on Vasopressin V1a receptor; greater than 30 µM in [3]; greater than 30 µM on Histamine H2 receptor. The AC50 on Motilin receptor was greater than 10 µM.

In the case of `CC1=C(/C=C/C(C)=C/C=C/C(C)=C/CO)C(C)(C)CCC1` [RETINOL], the AC50 is greater than 10 µM on Adenosine receptor A2a; greater than 10 µM in assay [1]; greater than 30 µM in [2]; greater than 10 µM at Vasopressin V1a receptor; greater than 10 µM in assay [4]; greater than 10 µM on Histamine H2 receptor. Further, the AC50 on Motilin receptor was greater than 10 µM; on Progesterone receptor [5] it was greater than 30 µM; at Progesterone receptor [6], greater than 30 µM.

Regarding `CCOC(=O)c1ccc(C#Cc2ccc3c(c2)C(C)(C)CCS3)nc1` [TAZAROTENE], the AC50 at Adenosine receptor A2a is greater than 30 µM; in [1] it was greater than 10 µM; in assay [2] it was greater than 30 µM; in [3] it was greater than 30 µM; in [4], greater than 10 µM; on Histamine H2 receptor it was greater than 30 µM. At Motilin receptor, this molecule had a half-maximal activity concentration (AC50) greater than 10 µM.
